Test results: ChEMBL document CHEMBL3046389, “Synthesis and biological evaluation of novel hydroquinone dimethyl ethers as potential anticancer and antimicrobial agents” (2013)
Values after ≈ are worked out from the molar mass of the structure shown.

Columns and labels:
Format in all cases: functional
[1] = tested on: SK-MEL-28; test: Anticancer activity against Homo sapiens (human) SK-MEL-28 cells after 48 hr by SRB assay; details: SK-MEL-28, 48 h
[2] = tested on: SR; test: Anticancer activity against Homo sapiens (human) SR cells after 48 hr by SRB assay
[3] = tested on: BT-549; test: Anticancer activity against Homo sapiens (human) BT549 cells after 48 hr by SRB assay; details: BT-549, 48 h
[4] = tested on: IGROV-1; test: Anticancer activity against Homo sapiens (human) IGROV1 cells after 48 hr by SRB assay; details: IGROV-1, 48 h
[5] = tested on: SF-268; test: Anticancer activity against Homo sapiens (human) SF268 cells after 48 hr by SRB assay; details: SF-268, 48 h
[6] = tested on: NCI/ADR-RES; test: Anticancer activity against Homo sapiens (human) NCI/ADR-RES cells after 48 hr by SRB assay
[7] = tested on: SW-620; test: Anticancer activity against Homo sapiens (human) SW620 cells after 48 hr by SRB assay; details: SW-620, 48 h
[8] = tested on: CCRF-CEM; test: Anticancer activity against Homo sapiens (human) CCRF-CEM cells after 48 hr by SRB assay
[9] = tested on: U-251; test: Growth inhibition of Homo sapiens (human) U251 cells at 10 uM after 48 hr by SRB assay; details: U-251, 48 h, read-out: GI
[10] = tested on: NCI-H460; test: Growth inhibition of Homo sapiens (human) NCI-H460 cells at 10 uM after 48 hr by SRB assay; details: NCI-H460, 48 h, read-out: GI
[11] = tested on: UO-31; test: Growth inhibition of Homo sapiens (human) UO31 cells at 10 uM after 48 hr by SRB assay; details: UO-31, 48 h, read-out: GI
[12] = tested on: M14; test: Anticancer activity against Homo sapiens (human) M14 cells after 48 hr by SRB assay; details: M14, 48 h
[13] = tested on: SNB-75; test: Growth inhibition of Homo sapiens (human) SNB75 cells at 10 uM after 48 hr by SRB assay; details: SNB-75, 48 h, read-out: GI
[14] = tested on: SK-OV-3; test: Growth inhibition of Homo sapiens (human) SKOV3 cells at 10 uM after 48 hr by SRB assay; details: SK-OV-3, 48 h, read-out: GI
[15] = tested on: SK-MEL-2; test: Anticancer activity against Homo sapiens (human) SK-MEL-2 cells after 48 hr by SRB assay; details: SK-MEL-2, 48 h
[16] = tested on: HCC 2998; test: Growth inhibition of Homo sapiens (human) HCC2998 cells at 10 uM after 48 hr by SRB assay; details: HCC 2998, 48 h, read-out: GI
[17] = tested on: SF-539; test: Growth inhibition of Homo sapiens (human) SF539 cells at 10 uM after 48 hr by SRB assay; details: SF-539, 48 h, read-out: GI
[18] = tested on: ACHN; test: Anticancer activity against Homo sapiens (human) ACHN cells after 48 hr by SRB assay
[19] = tested on: U-251; test: Anticancer activity against Homo sapiens (human) U251 cells after 48 hr by SRB assay; details: U-251, 48 h
[20] = tested on: NCI-H322M; test: Anticancer activity against Homo sapiens (human) NCI-H322M cells after 48 hr by SRB assay
[21] = tested on: HOP-62; test: Anticancer activity against Homo sapiens (human) HOP62 cells after 48 hr by SRB assay; details: HOP-62, 48 h
[22] = tested on: HL-60(TB); test: Growth inhibition of Homo sapiens (human) HL-60(TB) cells at 10 uM after 48 hr by SRB assay; details: HL-60, 48 h, read-out: GI
[23] = tested on: RPMI-8226; test: Anticancer activity against Homo sapiens (human) RPMI8226 cells after 48 hr by SRB assay; details: RPMI-8226, 48 h
[24] = tested on: SK-OV-3; test: Anticancer activity against Homo sapiens (human) SKOV3 cells after 48 hr by SRB assay; details: SK-OV-3, 48 h
[25] = tested on: TK-10; test: Anticancer activity against Homo sapiens (human) TK10 cells after 48 hr by SRB assay; details: TK-10, 48 h
[26] = tested on: Staphylococcus aureus; test: Antimicrobial activity against Staphylococcus aureus DSM 1104 after 48 hr by two-fold serial broth dilution method; details: DSM 1104, 48 h
[27] = tested on: UACC-62; test: Anticancer activity against Homo sapiens (human) UACC62 cells after 48 hr by SRB assay; details: UACC-62, 48 h
[28] = tested on: Hs-578T; test: Growth inhibition of Homo sapiens (human) Hs 578T cells at 10 uM after 48 hr by SRB assay; details: read-out: GI
[29] = tested on: KM12; test: Anticancer activity against Homo sapiens (human) KM12 cells after 48 hr by SRB assay; details: KM12, 48 h
[30] = tested on: OVCAR-3; test: Anticancer activity against Homo sapiens (human) OVCAR3 cells after 48 hr by SRB assay; details: OVCAR-3, 48 h
[31] = tested on: HOP-62; test: Growth inhibition of Homo sapiens (human) HOP62 cells at 10 uM after 48 hr by SRB assay; details: HOP-62, 48 h, read-out: GI
[32] = tested on: OVCAR-8; test: Growth inhibition of Homo sapiens (human) OVCAR8 cells at 10 uM after 48 hr by SRB assay; details: OVCAR-8, 48 h, read-out: GI
[33] = tested on: K562; test: Anticancer activity against Homo sapiens (human) K562 cells after 48 hr by SRB assay; details: K562, 48 h
[34] = read-out: LC50 (the source's name)

Work on `COc1ccc(OC)c(/C=C/C(=O)N/N=C/c2ccc(Cl)cc2)c1` yielded a GI50 [1] of 372 nM, an LC50 (concentration killing 50% of cells) [1] of over 100 µM and a TGI [1] of over 100 µM. For the same compound, the GI50 [2] was 39 nM, the TGI [2] was 16.4 µM and the CC50 [2, 34] was over 100 µM. For the same compound, the GI50 [3] was 1170 nM, the TGI [3] was over 100 µM and the CC50 [3, 34] was over 100 µM. The GI50 [4] was 187 nM, the LC50 (50% lethal concentration) [4] was over 100 µM and the TGI [4] was 62.9 µM. The GI50 [5] was 718 nM, the TGI [5] was over 100 µM and the CC50 [5, 34] was over 100 µM. The GI50 [6] was 39.1 nM, the LC50 [6] was 90.6 µM and the TGI [6] was 233 nM. It also gave a GI50 [7] of 81.3 nM, a TGI [7] of over 100 µM and a CC50 [7, 34] of over 100 µM. For the same compound, the GI50 [8] was 228 nM, the TGI [8] was over 100 µM and the CC50 [8, 34] was over 100 µM. For the same compound, the inhibition of growth at 10 µM [9] was 81.6%, the inhibition of growth at 10 µM [10] was 94.8% and the inhibition of growth at 10 µM [11] was 69.9%. For the same compound, the GI50 [12] was 87.9 nM, the LC50 [12] was over 100 µM and the TGI [12] was 6.7 µM. It also gave an inhibition of growth at 10 µM [13] of 56%, an inhibition of growth at 10 µM [14] of 105% and a GI50 [15] of 24.7 µM. It also gave a TGI [15] of over 100 µM, a CC50 [15, 34] of over 100 µM and an inhibition of growth at 10 µM [16] of 97.7%. It also gave an inhibition of growth at 10 µM [17] of 143%, a GI50 [18] of 1490 nM and a TGI [18] of over 100 µM. It also gave a CC50 [18, 34] of over 100 µM, a GI50 [19] of 184 nM and a TGI [19] of 1490 nM. The CC50 [19, 34] was over 100 µM, the GI50 [20] was 666 nM and the TGI [20] was over 100 µM. For the same compound, the CC50 [20, 34] was over 100 µM, the GI50 [21] was 162 nM and the TGI [21] was 50.2 µM. The CC50 [21, 34] was over 100 µM, the inhibition of growth at 10 µM [22] was 79.9% and the GI50 [23] was 300 nM. The TGI [23] was 15.7 µM, the CC50 [23, 34] was over 100 µM and the GI50 [24] was 149 nM. For the same compound, the LC50 [24] was over 100 µM, the TGI [24] was 13.9 µM and the GI50 [25] was 691 nM. For the same compound, the TGI [25] was over 100 µM, the CC50 [25, 34] was over 100 µM and the MBC [26] was 100 µg/mL (≈ 290 µM). It also gave an MIC [26] of 100 µg/mL (≈ 290 µM), a GI50 [27] of 68 nM and an LC50 [27] of over 100 µM. The TGI [27] was over 100 µM, the inhibition of growth at 10 µM [28] was 102% and the GI50 [29] was 52.2 nM. It also gave a TGI [29] of 8.48 µM, a CC50 [29, 34] of over 100 µM and a GI50 [30] of 33.5 nM. The LC50 [30] was over 100 µM, the TGI [30] was 115 nM and the inhibition of growth at 10 µM [31] was 62.1%. The inhibition of growth at 10 µM [32] was 79%, the GI50 [33] was 48.8 nM and the TGI [33] was over 100 µM. For the same compound, the CC50 [33, 34] was over 100 µM.
